The NIST ThermoML archive (doi:10.1016/j.fluid.2010.10.028)
Numbers after ± are expanded uncertainties.

Experiment: xn = mol fraction of the nth substance listed
Settings: Liquid, Vibrating tube method

## CC(C)=O [acetone] + CCCCCCC
347.61 K, 99820 kPa, x1 = 0.7024
  mass density: 766.18 ± 1.5 kg/m3
347.61 K, 104810 kPa, x1 = 0.7024
  mass density: 768.98 ± 1.5 kg/m3
347.61 K, 109800 kPa, x1 = 0.7024
  mass density: 771.73 ± 1.6 kg/m3
347.61 K, 114810 kPa, x1 = 0.7024
  mass density: 774.41 ± 1.6 kg/m3
347.61 K, 119820 kPa, x1 = 0.7024
  mass density: 777.02 ± 1.6 kg/m3
347.61 K, 124830 kPa, x1 = 0.7024
  mass density: 779.56 ± 1.6 kg/m3
347.61 K, 129810 kPa, x1 = 0.7024
  mass density: 782.01 ± 1.6 kg/m3
347.62 K, 1020 kPa, x1 = 0.801
  mass density: 689 ± 1.2 kg/m3
347.62 K, 1220 kPa, x1 = 0.4
  mass density: 705.05 ± 1.2 kg/m3
347.62 K, 1220 kPa, x1 = 0.8992
  mass density: 705.05 ± 1.2 kg/m3
347.62 K, 4860 kPa, x1 = 0.801
  mass density: 695.13 ± 1.2 kg/m3
347.62 K, 5030 kPa, x1 = 0.4
  mass density: 711.05 ± 1.2 kg/m3
347.62 K, 5030 kPa, x1 = 0.8992
  mass density: 711.05 ± 1.2 kg/m3
347.62 K, 9870 kPa, x1 = 0.801
  mass density: 702.45 ± 1.2 kg/m3
347.62 K, 10010 kPa, x1 = 0.4
  mass density: 718.22 ± 1.3 kg/m3
347.62 K, 10010 kPa, x1 = 0.8992
  mass density: 718.22 ± 1.2 kg/m3
347.62 K, 14850 kPa, x1 = 0.801
  mass density: 709.08 ± 1.2 kg/m3
347.62 K, 15000 kPa, x1 = 0.4
  mass density: 724.83 ± 1.3 kg/m3
347.62 K, 15000 kPa, x1 = 0.8992
  mass density: 724.83 ± 1.2 kg/m3
347.62 K, 19850 kPa, x1 = 0.801
  mass density: 715.23 ± 1.2 kg/m3
347.62 K, 24850 kPa, x1 = 0.801
  mass density: 720.94 ± 1.3 kg/m3
347.62 K, 29860 kPa, x1 = 0.801
  mass density: 726.31 ± 1.3 kg/m3
347.62 K, 34950 kPa, x1 = 0.4
  mass density: 746.98 ± 1.3 kg/m3
347.62 K, 34950 kPa, x1 = 0.8992
  mass density: 746.98 ± 1.3 kg/m3
347.62 K, 39850 kPa, x1 = 0.801
  mass density: 736.15 ± 1.3 kg/m3
347.62 K, 39940 kPa, x1 = 0.4
  mass density: 751.76 ± 1.3 kg/m3
347.62 K, 39940 kPa, x1 = 0.8992
  mass density: 751.76 ± 1.3 kg/m3
347.62 K, 44930 kPa, x1 = 0.4
  mass density: 756.3 ± 1.3 kg/m3
347.62 K, 44930 kPa, x1 = 0.8992
  mass density: 756.3 ± 1.3 kg/m3
347.62 K, 49910 kPa, x1 = 0.4
  mass density: 760.61 ± 1.4 kg/m3
347.62 K, 49910 kPa, x1 = 0.8992
  mass density: 760.61 ± 1.3 kg/m3
347.62 K, 54840 kPa, x1 = 0.801
  mass density: 749.08 ± 1.4 kg/m3
347.62 K, 54890 kPa, x1 = 0.4
  mass density: 764.72 ± 1.4 kg/m3
347.62 K, 54890 kPa, x1 = 0.8992
  mass density: 764.72 ± 1.3 kg/m3
347.62 K, 59880 kPa, x1 = 0.4
  mass density: 768.69 ± 1.4 kg/m3
347.62 K, 59880 kPa, x1 = 0.8992
  mass density: 768.69 ± 1.4 kg/m3
347.62 K, 64870 kPa, x1 = 0.4
  mass density: 772.47 ± 1.4 kg/m3
347.62 K, 64870 kPa, x1 = 0.8992
  mass density: 772.47 ± 1.4 kg/m3
347.62 K, 69850 kPa, x1 = 0.4
  mass density: 776.15 ± 1.4 kg/m3
347.62 K, 69850 kPa, x1 = 0.8992
  mass density: 776.15 ± 1.4 kg/m3
347.62 K, 74830 kPa, x1 = 0.4
  mass density: 779.64 ± 1.4 kg/m3
347.62 K, 74830 kPa, x1 = 0.8992
  mass density: 779.64 ± 1.4 kg/m3
347.62 K, 74890 kPa, x1 = 0.801
  mass density: 763.9 ± 1.4 kg/m3
347.62 K, 79820 kPa, x1 = 0.4
  mass density: 783.06 ± 1.4 kg/m3
347.62 K, 79820 kPa, x1 = 0.8992
  mass density: 783.06 ± 1.4 kg/m3
347.62 K, 79870 kPa, x1 = 0.801
  mass density: 767.26 ± 1.4 kg/m3
347.62 K, 84800 kPa, x1 = 0.4
  mass density: 786.42 ± 1.4 kg/m3
347.62 K, 84800 kPa, x1 = 0.8992
  mass density: 786.42 ± 1.4 kg/m3
347.62 K, 89780 kPa, x1 = 0.4
  mass density: 789.6 ± 1.5 kg/m3
347.62 K, 89780 kPa, x1 = 0.8992
  mass density: 789.6 ± 1.4 kg/m3
347.62 K, 94760 kPa, x1 = 0.4
  mass density: 792.68 ± 1.5 kg/m3
347.62 K, 94760 kPa, x1 = 0.8992
  mass density: 792.68 ± 1.4 kg/m3
347.62 K, 99740 kPa, x1 = 0.4
  mass density: 795.68 ± 1.5 kg/m3
347.62 K, 99740 kPa, x1 = 0.8992
  mass density: 795.68 ± 1.5 kg/m3
347.62 K, 99810 kPa, x1 = 0.801
  mass density: 779.62 ± 1.5 kg/m3
347.62 K, 104710 kPa, x1 = 0.4
  mass density: 798.57 ± 1.5 kg/m3
347.62 K, 104710 kPa, x1 = 0.8992
  mass density: 798.57 ± 1.5 kg/m3
347.62 K, 109700 kPa, x1 = 0.4
  mass density: 801.41 ± 1.5 kg/m3
347.62 K, 109700 kPa, x1 = 0.8992
  mass density: 801.41 ± 1.5 kg/m3
347.62 K, 114660 kPa, x1 = 0.4
  mass density: 804.17 ± 1.5 kg/m3
347.62 K, 114660 kPa, x1 = 0.8992
  mass density: 804.17 ± 1.5 kg/m3
347.62 K, 119630 kPa, x1 = 0.4
  mass density: 806.86 ± 1.5 kg/m3
347.62 K, 119630 kPa, x1 = 0.8992
  mass density: 806.86 ± 1.5 kg/m3
347.62 K, 124610 kPa, x1 = 0.4
  mass density: 809.5 ± 1.6 kg/m3
347.62 K, 124610 kPa, x1 = 0.8992
  mass density: 809.5 ± 1.5 kg/m3
347.62 K, 124830 kPa, x1 = 0.801
  mass density: 793.29 ± 1.6 kg/m3
347.62 K, 129570 kPa, x1 = 0.4
  mass density: 812.05 ± 1.6 kg/m3
347.62 K, 129570 kPa, x1 = 0.8992
  mass density: 812.05 ± 1.5 kg/m3
347.63 K, 1030 kPa, x1 = 0.492
  mass density: 657.71 ± 1.2 kg/m3
347.63 K, 1030 kPa, x1 = 0.611
  mass density: 666.96 ± 1.2 kg/m3
347.63 K, 4850 kPa, x1 = 0.492
  mass density: 663.76 ± 1.2 kg/m3
347.63 K, 4870 kPa, x1 = 0.611
  mass density: 673.09 ± 1.2 kg/m3
347.63 K, 9850 kPa, x1 = 0.492
  mass density: 670.93 ± 1.2 kg/m3
347.63 K, 9870 kPa, x1 = 0.611
  mass density: 680.36 ± 1.2 kg/m3
347.63 K, 14850 kPa, x1 = 0.492
  mass density: 677.45 ± 1.2 kg/m3
347.63 K, 19850 kPa, x1 = 0.492
  mass density: 683.45 ± 1.3 kg/m3
347.63 K, 19980 kPa, x1 = 0.4
  mass density: 730.92 ± 1.3 kg/m3
347.63 K, 19980 kPa, x1 = 0.8992
  mass density: 730.92 ± 1.2 kg/m3
347.63 K, 24860 kPa, x1 = 0.492
  mass density: 689 ± 1.3 kg/m3
347.63 K, 24960 kPa, x1 = 0.4
  mass density: 736.6 ± 1.3 kg/m3
347.63 K, 24960 kPa, x1 = 0.8992
  mass density: 736.6 ± 1.3 kg/m3
347.63 K, 29860 kPa, x1 = 0.492
  mass density: 694.2 ± 1.3 kg/m3
347.63 K, 29960 kPa, x1 = 0.4
  mass density: 741.95 ± 1.3 kg/m3
347.63 K, 29960 kPa, x1 = 0.8992
  mass density: 741.95 ± 1.3 kg/m3
347.63 K, 34850 kPa, x1 = 0.492
  mass density: 699.05 ± 1.3 kg/m3
347.63 K, 34850 kPa, x1 = 0.801
  mass density: 731.37 ± 1.3 kg/m3
347.63 K, 39860 kPa, x1 = 0.492
  mass density: 703.65 ± 1.3 kg/m3
347.63 K, 44850 kPa, x1 = 0.801
  mass density: 740.65 ± 1.3 kg/m3
347.63 K, 44870 kPa, x1 = 0.492
  mass density: 708.02 ± 1.3 kg/m3
347.63 K, 49830 kPa, x1 = 0.492
  mass density: 712.11 ± 1.4 kg/m3
347.63 K, 49850 kPa, x1 = 0.801
  mass density: 744.95 ± 1.3 kg/m3
